This is an account of results in ChEMBL document CHEMBL2321749, “Incorporation of rapid thermodynamic data in fragment-based drug discovery” (J Med Chem, 2013).

Experiment [1] addresses T1, Steroid Delta-isomerase (Pseudomonas putida, UniProt P07445).
T1 sequence (P07445 whole entry): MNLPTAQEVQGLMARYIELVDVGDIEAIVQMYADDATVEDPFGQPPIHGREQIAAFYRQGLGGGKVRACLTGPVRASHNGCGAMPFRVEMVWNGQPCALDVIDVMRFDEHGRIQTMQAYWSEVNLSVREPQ
Description: Binding affinity to Pseudomonas putida KSI by isothermal titration calorimetry. On the technique in general: Isothermal titration calorimetry measures the heat released or taken up as one component is titrated into another.

The target in experiment [2] is T1, Steroid Delta-isomerase. The experiment in a line: Binding affinity to Pseudomonas putida KSI by surface plasmon resonance analysis. A general note: Surface plasmon resonance follows binding to a sensor surface in real time, without labels.
Experiment [3] concerns the target T2, Steroid Delta-isomerase (Pseudomonas putida) (UniProt P07445).
T2 sequence (whole entry): T1 sequence (P07445 whole entry)
Description: Ratio of KD for Pseudomonas putida KSI by surface plasmon resonance analysis to KD for Pseudomonas putida KSI by surface plasmon resonance analysis.

In general, pKd refers to the Kd on a negative log10 scale, so that one unit is a factor of ten.

Structures are written as SMILES. pKd: −log10 of the molar value.

Compound `Cc1nnc2ccc(N3CCCC3)nn12` showed a pKd in experiment [1] of 4.66.

As for `NC(=O)Nc1cccc(C(F)(F)F)c1`, the pKd in experiment [1] is 4.34. Compound `NC(=O)/C=C/c1cccc(C(F)(F)F)c1` showed a negative-log Kd (pKd) in experiment [1] of 4.30. Regarding `C[C@H](CCC(=O)O)[C@H]1CC[C@H]2[C@@H]3CC[C@@H]4C[C@H](O)CC[C@]4(C)[C@H]3C[C@H](O)[C@]12C` [DEOXYCHOLIC ACID], the pKd in experiment [2] and in experiment [1] was 4.80 in each case. As for `CN1CCC2(C)c3cc(O)ccc3N(C)C12` (stereo not drawn), the Ratio in experiment [3] turned out to be 1.8. This compound had a pKd in experiment [1] of 3.74. Regarding `Cn1cc(C(N)=O)c2ccccc21`, in experiment [1], the pKd was 4.20.
